A value given as a limit tells only on which side of the number the result lay.

For the assay, the target named is T1, human VDR (Homo sapiens, UniProt P11473).
T1 sequence (P11473 1-427): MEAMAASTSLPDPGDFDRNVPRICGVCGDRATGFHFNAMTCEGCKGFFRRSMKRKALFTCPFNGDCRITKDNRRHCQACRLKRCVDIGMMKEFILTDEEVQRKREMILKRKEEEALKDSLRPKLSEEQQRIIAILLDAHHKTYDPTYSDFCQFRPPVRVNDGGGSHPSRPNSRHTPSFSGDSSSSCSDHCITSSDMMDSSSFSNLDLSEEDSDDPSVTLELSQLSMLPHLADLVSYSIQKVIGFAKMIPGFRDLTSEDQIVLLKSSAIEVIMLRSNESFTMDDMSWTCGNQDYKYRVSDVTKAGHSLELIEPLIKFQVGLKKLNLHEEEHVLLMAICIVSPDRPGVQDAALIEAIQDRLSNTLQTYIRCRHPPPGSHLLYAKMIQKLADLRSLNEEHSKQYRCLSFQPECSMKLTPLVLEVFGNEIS
T1 sequence (P19793 1-462 partner): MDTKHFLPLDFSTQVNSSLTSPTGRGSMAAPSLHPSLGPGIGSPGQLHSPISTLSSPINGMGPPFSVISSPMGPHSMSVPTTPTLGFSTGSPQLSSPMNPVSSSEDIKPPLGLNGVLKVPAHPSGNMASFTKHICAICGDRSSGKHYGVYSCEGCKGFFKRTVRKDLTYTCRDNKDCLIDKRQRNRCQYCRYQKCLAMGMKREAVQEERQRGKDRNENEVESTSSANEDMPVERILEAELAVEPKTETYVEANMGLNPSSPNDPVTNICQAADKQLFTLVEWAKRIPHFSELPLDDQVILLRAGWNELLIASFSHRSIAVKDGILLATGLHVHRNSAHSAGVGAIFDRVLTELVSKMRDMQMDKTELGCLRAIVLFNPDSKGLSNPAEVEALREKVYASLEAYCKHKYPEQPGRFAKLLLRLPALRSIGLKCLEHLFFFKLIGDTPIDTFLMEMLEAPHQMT
Nature of the assay: Evaluation of VDR transcription activity in human osteoblasts (HOS cells), luciferase reporter. The following applies: Activity (EC50, VDR transcription activity), HOS cells transfected with human VDR, human RXRα and DR3 luciferase reporter; 21 hours. (In general: In a reporter assay the amount or activity of a reporter protein is the signal.)
Regarding `C[C@@H](CN1CCC(C(F)F)CC1)[C@H]1CC[C@H]2/C(=C/C=C3C[C@@H](O)C[C@H](O)C3)CCC[C@]12C` [Compound C018, (1R,3R)-5-(2-((1R,3aS,7aR,E)-1-((R)-1-(4-(difluoromethyl)piperidin-1-yl)propan-2-yl)-7a-methyloctahydro-4H-inden-4-ylidene)ethylidene)cyclohexane-1,3-diol], the EC50 (as a rule, the concentration that produces a half-maximal response) is 0.01 to 0.1 µM. The result for `C=C1/C(=C\C=C2/CCC[C@]3(C)[C@@H]([C@@H](C)CN4CCC(C(F)F)CC4)CC[C@@H]23)C[C@@H](O)[C@H](C)[C@@H]1O` [Compound C020, (1R,2S,3S,Z)-5-(2-((1R,3aS,7aR,E)-1-((R)-1-(4-(difluoromethyl)piperidin-1-yl)propan-2-yl)-7a-methyloctahydro-4H-inden-4-ylidene)ethylidene)-2-methyl-4-methylenecyclohexane-1,3-diol] reads 0.001 to 0.01 µM. The compound `C=C1/C(=C\C=C2/CCC[C@]3(C)[C@@H]([C@H](C)CN4CCC(O)(C(F)F)CC4)CC[C@@H]23)C[C@@H](O)C[C@@H]1O` [Compound C021, (1R,3S,Z)-5-(2-((1R,3aS,7aR,E)-1-((S)-1-(4-(difluoromethyl)-4-hydroxypiperidin-1-yl)propan-2-yl)-7a-methyloctahydro-4H-inden-4-ylidene)ethylidene)-4-methylenecyclohexane-1,3-diol] registered an EC50 of 0.1 to 1 µM. The result for `C=C1[C@H](O)CC(=C/C=C2\CCC[C@]3(C)[C@@H]([C@H](C)CN4CCC(O)(C(F)F)CC4)CC[C@@H]23)C[C@H]1O` [Compound C022, (1R,3R)-5-(2-((1R,3aS,7aR,E)-1-((S)-1-(4-(difluoromethyl)-4-hydroxypiperidin-1-yl)propan-2-yl)-7a-methyloctahydro-4H-inden-4-ylidene)ethylidene)-2-methylenecyclohexane-1,3-diol] reads 0.01 to 0.1 µM; that for `C=C1/C(=C\C=C2/CCC[C@]3(C)[C@@H]([C@H](C)CN4CCC(O)(C(F)F)CC4)CC[C@@H]23)C[C@@H](O)[C@H](C)[C@@H]1O` [Compound C023, (1R,2S,3S,Z)-5-(2-((1R,3aS,7aR,E)-1-((S)-1-(4-(difluoromethyl)-4-hydroxypiperidin-1-yl)propan-2-yl)-7a-methyloctahydro-4H-inden-4-ylidene)ethylidene)-2-methyl-4-methylenecyclohexane-1,3-diol], 0.001 to 0.01 µM.

In turn, `C=C1/C(=C\C=C2/CCC[C@]3(C)[C@@H]([C@@H](C)CN4CCC(O)(C(F)F)CC4)CC[C@@H]23)C[C@@H](O)C[C@@H]1O` [Compound C024, (1R,3S,Z)-5-(2-((1R,3aS,7aR,E)-1-((R)-1-(4-(difluoromethyl)-4-hydroxypiperidin-1-yl)propan-2-yl)-7a-methyloctahydro-4H-inden-4-ylidene)ethylidene)-4-methylenecyclohexane-1,3-diol] yielded an EC50 of 0.001 to 0.01 µM.

`C[C@@H](CN1CCC(O)(C(F)F)CC1)[C@H]1CC[C@H]2/C(=C/C=C3C[C@@H](O)C[C@H](O)C3)CCC[C@]12C` [Compound C025, (1R,3R)-5-(2-((1R,3aS,7aR,E)-1-((R)-1-(4-(difluoromethyl)-4-hydroxypiperidin-1-yl)propan-2-yl)-7a-methyloctahydro-4H-inden-4-ylidene)ethylidene)cyclohexane-1,3-diol]: the EC50 fell in the range of 0.01 to 0.1 µM. `C=C1[C@H](O)CC(=C/C=C2\CCC[C@]3(C)[C@@H]([C@@H](C)CN4CCC(O)(C(F)F)CC4)CC[C@@H]23)C[C@H]1O` [Compound C026, (1R,3R)-5-(2-((1R,3aS,7aR,E)-1-((R)-1-(4-(difluoromethyl)-4-hydroxypiperidin-1-yl)propan-2-yl)-7a-methyloctahydro-4H-inden-4-ylidene)ethylidene)-2-methylenecyclohexane-1,3-diol] had an EC50 of 0.001 to 0.01 µM.

Regarding `C=C1/C(=C\C=C2/CCC[C@]3(C)[C@@H]([C@@H](C)CN4CCC(C)(O)CC4)CC[C@@H]23)C[C@@H](O)C[C@@H]1O` [Compound C029, (1R,3S,Z)-5-(2-((1R,3aS,7aR,E)-1-((R)-1-(4-hydroxy-4-methylpiperidin-1-yl)propan-2-yl)-7a-methyloctahydro-4H-inden-4-ylidene)ethylidene)-4-methylenecyclohexane-1,3-diol], the EC50 is 0.1 to 1 µM. Turning to `C=C1[C@H](O)CC(=C/C=C2\CCC[C@]3(C)[C@@H]([C@H](C)CN4CCC[C@@](C)(O)C4)CC[C@@H]23)C[C@H]1O` [Compound C040, (1R,3R)-5-(2-((1R,3aS,7aR,E)-1-((S)-1-((R)-3-hydroxy-3-methylpiperidin-1-yl)propan-2-yl)-7a-methyloctahydro-4H-inden-4-ylidene)ethylidene)-2-methylenecyclohexane-1,3-diol], the EC50 lay within 0.01 to 0.1 µM.

The compound `C=C1[C@H](O)CC(=C/C=C2\CCC[C@]3(C)[C@@H]([C@H](C)CN4CCC[C@](C)(O)C4)CC[C@@H]23)C[C@H]1O` [Compound C041, (1R,3R)-5-(2-((1R,3aS,7aR,E)-1-((S)-1-((S)-3-hydroxy-3-methylpiperidin-1-yl)propan-2-yl)-7a-methyloctahydro-4H-inden-4-ylidene)ethylidene)-2-methylenecyclohexane-1,3-diol] displayed an EC50 below 0.001 µM. In the case of `C=C1/C(=C\C=C2/CCC[C@]3(C)[C@@H]([C@H](C)CN4CCC[C@H](C(F)F)C4)CC[C@@H]23)C[C@@H](O)C[C@@H]1O` [Compound C048, (1R,3S,Z)-5-(2-((1R,3aS,7aR,E)-1-((S)-1-((S)-3-(difluoromethyl)piperidin-1-yl)propan-2-yl)-7a-methyloctahydro-4H-inden-4-ylidene)ethylidene)-4-methylenecyclohexane-1,3-diol], the EC50 was in the range of 0.01 to 0.1 µM. Then `C=C1[C@H](O)CC(=C/C=C2\CCC[C@]3(C)[C@@H]([C@H](C)CN4CCC[C@H](C(F)F)C4)CC[C@@H]23)C[C@H]1O` [Compound C049, (1R,3R)-5-(2-((1R,3aS,7aR,E)-1-((S)-1-((S)-3-(difluoromethyl)piperidin-1-yl)propan-2-yl)-7a-methyloctahydro-4H-inden-4-ylidene)ethylidene)-2-methylenecyclohexane-1,3-diol], with 0.001 to 0.01 µM; and `C=C1/C(=C\C=C2/CCC[C@]3(C)[C@@H]([C@H](C)CN4CCC[C@H](C(F)F)C4)CC[C@@H]23)C[C@@H](O)[C@H](C)[C@@H]1O` [Compound C050, (1R,2S,3 S,Z)-5-(2-((1R,3aS,7aR,E)-1-((S)-1-((S)-3-(difluoromethyl)piperidin-1-yl)propan-2-yl)-7a-methyloctahydro-4H-inden-4-ylidene)ethylidene)-2-methyl-4-methylenecyclohexane-1,3-diol], with 0.001 to 0.01 µM. In the case of `C[C@H](CN1CCC[C@H](CC(F)F)C1)[C@H]1CC[C@H]2/C(=C/C=C3C[C@@H](O)C[C@H](O)C3)CCC[C@]12C` [Compound C051, (1R,3R)-5-(2-((1R,3aS,7aR,E)-1-((S)-1-((R)-3-(2,2-difluoroethyl)piperidin-1-yl)propan-2-yl)-7a-methyloctahydro-4H-inden-4-ylidene)ethylidene)cyclohexane-1,3-diol], the EC50 fell in the range of 0.1 to 1 µM. Then `C=C1[C@H](O)CC(=C/C=C2\CCC[C@]3(C)[C@@H]([C@H](C)CN4CCC[C@H](C(C)(F)F)C4)CC[C@@H]23)C[C@H]1O` [Compound C053, (1R,3R)-5-(2-((1R,3aS,7aR,E)-1-((S)-1-((S)-3-(1,1-difluoroethyl)piperidin-1-yl)propan-2-yl)-7a-methyloctahydro-4H-inden-4-ylidene)ethylidene)-2-methylenecyclohexane-1,3-diol], with 0.001 to 0.01 µM; and `C=C1[C@H](O)CC(=C/C=C2\CCC[C@]3(C)[C@@H]([C@@H](C)CN4CCC(CC(F)F)CC4)CC[C@@H]23)C[C@H]1O` [Compound C056, (1R,3R)-5-(2-((1R,3aS,7aR,E)-1-((R)-1-(4-(2,2-difluoroethyl)piperidin-1-yl)propan-2-yl)-7a-methyloctahydro-4H-inden-4-ylidene)ethylidene)-2-methylenecyclohexane-1,3-diol], with 0.01 to 0.1 µM.

In turn, `C=C1[C@H](O)CC(=C/C=C2\CCC[C@]3(C)[C@@H]([C@@H](C)CN4CCC(C(C)(F)F)CC4)CC[C@@H]23)C[C@H]1O` [Compound C057, (1R,3R)-5-(2-((1R,3aS,7aR,E)-1-((R)-1-(4-(1,1-difluoroethyl)piperidin-1-yl)propan-2-yl)-7a-methyloctahydro-4H-inden-4-ylidene)ethylidene)-2-methylenecyclohexane-1,3-diol] had an EC50 of 0.001 to 0.01 µM.

In turn, `C=C1/C(=C\C=C2/CCC[C@]3(C)[C@@H]([C@@H](C)CN4CCC(F)CC4)CC[C@@H]23)C[C@@H](O)C[C@@H]1O` [Compound C058] yielded an EC50 of 0.01 to 0.1 µM.
